ChEMBL document CHEMBL3886670, “ROR modulators and their uses” (2016)

Target: T1, Nuclear receptor ROR-gamma (Homo sapiens, UniProt P51449)
T1 sequence (P51449 whole entry): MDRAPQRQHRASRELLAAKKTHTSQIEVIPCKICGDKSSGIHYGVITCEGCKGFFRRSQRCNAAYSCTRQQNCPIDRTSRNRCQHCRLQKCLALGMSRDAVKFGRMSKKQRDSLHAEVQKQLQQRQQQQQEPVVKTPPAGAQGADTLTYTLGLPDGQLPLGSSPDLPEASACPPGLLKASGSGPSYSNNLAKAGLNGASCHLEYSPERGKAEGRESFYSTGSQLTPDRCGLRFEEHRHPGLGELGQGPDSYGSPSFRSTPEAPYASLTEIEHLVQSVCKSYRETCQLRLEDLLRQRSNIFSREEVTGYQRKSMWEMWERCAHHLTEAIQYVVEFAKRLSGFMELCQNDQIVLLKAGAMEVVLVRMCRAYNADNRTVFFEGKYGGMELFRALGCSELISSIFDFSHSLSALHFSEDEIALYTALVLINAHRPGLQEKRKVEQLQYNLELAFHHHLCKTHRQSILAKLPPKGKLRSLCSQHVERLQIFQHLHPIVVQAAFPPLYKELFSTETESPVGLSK
Assay: Binding Assay: Compound binding to the human RORγ LBD was assessed using the Human RORγ Assay System (INDIGO Biosciences Inc.) as per manufacturer's instructions. Binding to the RORγ LBD was assessed using gradient concentrations of the indicated compounds in a final concentration of 0.5% DMSO.

CS(=O)(=O)Nc1ccc2c(c1)CCC(=O)N2Cc1ccc(C(O)(C(F)(F)F)C(F)(F)F)cc1
IC50: < 10 µM
